# According to patent US5026715A, “2-guanidino-4-arylthiazoles for treatment of peptic ulcers” (Pfizer Inc., priority 1989, dated 1991):
# Structures can show the parent of a compound that is named as a salt.
# Target: T1, H^+ / K^+ ATPase isolated from canine gastric mucosa (Canis lupus familiaris, UniProt P50996)
# T1 construct: ATPase isolated from canine gastric mucosa; from tissue; host or cells: canine gastric mucosa
# Assay: Inhibition of H+/K+ ATPase isolated from canine gastric mucosa
# Type: biochemical
# Conditions: preincubated 45 minutes at 37° C., pH 7.5, drugs preferably acid activated in 1:1 dimethylsulfoxide:0.02N HCl, 30 minutes, read-out: IC50 (the concentration which inhibits the enzyme to the extent of 50%)
# Procedure: The utility of the present compounds as antiulcer agents is reflected in vitro by their inhibition of H^+ / K^+ ATPase isolated from canine gastric mucosa. The enzyme activity was assayed according to Beil et al., Brit. J. Pharmacol. 82, 651-657 (1984) with slight modifications. The enzyme (1-2 micrograms) was preincubated at 37° C. for 45 minutes with a medium containing 2×10^-3 M MgCl2, 0.05M Tris-Cl buffer (pH 7.5) with or without 0.01M KCl, and the acid activated test drug in a final volume of 0.590 ml. The reaction was started by the addition of […] of ATP (final concentration 3×10^-3 M). The reaction was terminated by adding trichloroacetic acid to a concentration of 4.2%. Liberated inorganic phosphate was determined using Fiske and Subbarow Reducer available commercially (e.g., from Sigma Chemical Co., P.O. Box 14508, St. Louis, Mo. 63178, U.S.A.). In this test the drugs are preferably first acid activated by incubating in 1:1 dimethylsulfoxide:0.02N HCl at 37° C. for 30 minutes.
# T1 sequence (P50996 2-1034 limits assumed): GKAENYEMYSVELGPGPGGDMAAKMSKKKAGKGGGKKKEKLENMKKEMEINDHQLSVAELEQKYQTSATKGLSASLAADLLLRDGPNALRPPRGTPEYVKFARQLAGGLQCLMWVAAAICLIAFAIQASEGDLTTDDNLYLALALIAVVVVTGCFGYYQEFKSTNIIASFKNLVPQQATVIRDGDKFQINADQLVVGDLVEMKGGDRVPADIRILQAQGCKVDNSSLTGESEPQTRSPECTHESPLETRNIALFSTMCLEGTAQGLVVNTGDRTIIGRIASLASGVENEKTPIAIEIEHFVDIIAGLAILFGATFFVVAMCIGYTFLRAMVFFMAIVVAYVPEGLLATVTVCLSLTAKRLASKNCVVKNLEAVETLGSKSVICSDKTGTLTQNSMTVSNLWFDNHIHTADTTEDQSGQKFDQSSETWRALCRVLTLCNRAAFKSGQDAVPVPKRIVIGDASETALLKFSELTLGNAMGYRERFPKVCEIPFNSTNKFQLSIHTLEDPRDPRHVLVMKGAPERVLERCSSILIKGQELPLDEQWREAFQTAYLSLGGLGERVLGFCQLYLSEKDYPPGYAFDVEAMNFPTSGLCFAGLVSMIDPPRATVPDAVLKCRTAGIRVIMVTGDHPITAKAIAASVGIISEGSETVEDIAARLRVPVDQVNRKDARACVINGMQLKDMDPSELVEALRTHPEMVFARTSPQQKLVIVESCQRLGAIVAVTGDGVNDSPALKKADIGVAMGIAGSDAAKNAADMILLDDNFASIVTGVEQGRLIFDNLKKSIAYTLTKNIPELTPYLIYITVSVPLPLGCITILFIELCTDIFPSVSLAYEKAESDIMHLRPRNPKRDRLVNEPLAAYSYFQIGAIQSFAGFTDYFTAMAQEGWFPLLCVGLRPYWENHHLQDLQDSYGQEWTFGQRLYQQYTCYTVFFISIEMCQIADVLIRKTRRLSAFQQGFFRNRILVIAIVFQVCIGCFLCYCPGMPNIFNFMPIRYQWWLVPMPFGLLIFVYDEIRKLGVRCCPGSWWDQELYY
# T1 sequence (P33704 whole entry partner): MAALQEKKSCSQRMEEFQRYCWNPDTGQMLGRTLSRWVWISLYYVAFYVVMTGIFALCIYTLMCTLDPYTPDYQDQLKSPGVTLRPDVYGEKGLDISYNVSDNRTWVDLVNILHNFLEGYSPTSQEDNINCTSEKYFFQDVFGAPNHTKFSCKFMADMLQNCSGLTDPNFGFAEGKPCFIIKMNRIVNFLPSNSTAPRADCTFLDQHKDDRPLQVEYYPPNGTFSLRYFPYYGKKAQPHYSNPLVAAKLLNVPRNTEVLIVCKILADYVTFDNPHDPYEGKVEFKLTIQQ
row,Compound,IC50
1,Cc1cc(-c2csc(NC(=N)N)n2)c[nH]1 [2-guanidino-4-(2-methylpyrrol-4-yl)thiazole],15 µM
2,"N=C(NCc1ccccc1)Nc1nc(-c2c[nH]c3ccccc23)cs1 [4-(1H-Indol-3-yl)-2-(N-benzyl-N""-guanidino)thiazole Hydrochloride]",2 µM
3,COc1cccc(-c2csc(NC(=N)NCc3ccccc3)n2)c1 [4-(3-methoxyphenyl)-2-(N-benzylguanidino)thiazole],10 µM
4,N=C(NCc1ccccc1)Nc1nc(-c2c[nH]c3ccc(Cl)cc23)cs1 [4-(5-chloro-1H-indol-3-yl)-2-(N-benzylguanidino)thiazole],0.6 µM

# Tested on: ethanol-induced gastric ulceration in rats
# Assay: Inhibition of ethanol-induced gastric ulceration in rats (cytoprotective activity)
# Type: in vivo, rat
# Conditions: dose of 30 mg/kg
# Text: The in vivo utility of the present compounds as antiulcer agents is also particularly shown by their cytoprotective activity.
row,Compound,inhibition of ethanol-induced gastric ulceration
1,NC(=Nc1nc(-c2ccc[nH]2)cs1)NCc1ccccc1 [2-(N-benzylguanidino)-4-(pyrrol-2-yl)thiazole],99%
2,Cc1cc(-c2csc(NC(=N)N)n2)c[nH]1 [2-guanidino-4-(2-methylpyrrol-4-yl)thiazole],100%
